Experimental data: the RepoRT retention time repository (doi:10.1016/j.talanta.2015.03.003)

Assay: RP, Merck Supelco Ascentis Express C18, 150 × 2.1 mm, 2.7 µm, 55 °C, 0.26 mL/min, estimated dead time 1.3 min; A: 60% water + 40% acetonitrile + 0.1% formic acid + 10 mM ammonium formate; B: 10% acetonitrile + 90% isopropanol + 0.1% formic acid + 10 mM ammonium formate; gradient (min/%B) 0/32 1.5/32 4/45 5/52 8/58 11/66 14/70 18/75 21/97 25/97 25.1/32 30/32
Details: stereoisomer not certain

| SMILES | LC retention time [min] |
| --- | --- |
| CCCCCCCCCCCCCC=CC(O)C(CO)NC(=O)CCCCCCCCCCCCCCCCC (centres undefined) [CER_893] | 19.4 |
| CCCCCCCCCCCCCCCCCCCCCCCC(=O)O [lignoceric acid] | 17.8 |
| CCCCCCCCC=CCCCCCCCC(=O)O [oleic_acid] | 10.3 |
| CCCCCCCCCCCCCCCC(=O)OC(CC(=O)[O-])C[N+](C)(C)C (centres undefined) [C16-CAR] | 5.4 |
| CC(CCC(=O)O)C1CCC2C3C(O)CC4CC(O)CCC4(C)C3CC(O)C12C (centres undefined) [CA] | 2.2 |
| CCC(CCC(C)C1CCC2C3CC=C4CC(O)CCC4(C)C3CCC12C)C(C)C (centres undefined) [BSitosterol] | 16.6 |
| CC(CCC(=O)O)C1CCC2C3CCC4CC(O)CCC4(C)C3CCC12C (centres undefined) [LCA] | 5.6 |
| CCCCCCCC/C=C\CCCCCCCCCC(=O)O [cis-11-eicosenoic acid] | 12.2 |
| CC(CCC(=O)NCC(=O)O)C1CCC2C3CCC4CC(O)CCC4(C)C3CC(O)C12C (centres undefined) [G-DCA] | 2.1 |
| CC(C)CCCC(C)C1CCC2C3CCC4CCCCC4(C)C3CCC12C (centres undefined) [5alfa-colestane] | 9.2 |
| CCCCCCCCCCCCCCCCCCCC(=O)O [arachidic acid] | 13.9 |
| CCC=CCC=CCC=CCC=CCC=CCC=CCCC(=O)O [DocosahexaenoicAcid] | 8.4 |
| CC(CCC(=O)NCC(=O)O)C1CCC2C3C(O)CC4CC(O)CCC4(C)C3CC(O)C12C (centres undefined) [G-CA] | 1.6 |
| CC(CCC(=O)NCCS(=O)(=O)O)C1CCC2C3CCC4CC(O)CCC4(C)C3CC(O)C12C (centres undefined) [T-DCA] | 1.6 |
| CC(C)C(C)C=CC(C)C1CCC2C3=CC=C4CC(O)CCC4(C)C3CCC21C (centres undefined) [ergosterol] | 14.2 |
| CCCCCC=CCC=CCCCCCCCC(=O)OCC(O)CO (racemic) [1linoleoyl-rac-GL] | 7.6 |
| CC(C)C(C)CCC(C)C1CCC2C3CC=C4CC(O)CCC4(C)C3CCC12C (centres undefined) [campesterol] | 16 |
| CCCCC=CCCCCCCCC(=O)O [MiristoleicAcid] | 6.6 |
| CCCCCCC=CCCCCCCCC(=O)OCC(COC(=O)CCCCCCCC=CCCCCCC)OC(=O)CCCCCCCC=CCCCCCC (centres undefined) [glyceryltripalmitoleate] | 24.2 |
| CCCCCCCCCCCCCC(=O)O [MirysticAcid] | 8 |

| SMILES | LC retention time [min] |
| --- | --- |
| CCC=CCC=CCC=CCCCCCCCC(=O)O [linolenic acid] | 7.8 |
| CCCCCCCCCCCCCCCCC(=O)O [margaric acid] | 11 |
| CC(CCC(=O)O)C1CCC2C3C(O)C(O)C4CC(O)CCC4(C)C3CCC12C (centres undefined) [MCA] | 1.9 |
| CCCCCCCCCCCCCCCCCC(=O)O [StearicAcid] | 12 |
| CCCCCC=CCC=CCCCCCCCC(=O)OCC(COP(=O)(O)OCC[N+](C)(C)C)OC(=O)CCCCCCCC=CCC=CCCCCC (centres undefined) [1,2dilinoleoyl_PC] | 14.7 |
| CCCCCCCCC=CCCCCCCCC(=O)OCC(COC(=O)CCCCCCCC=CCCCCCCCC)OC(=O)CCCCCCCC=CCCCCCCCC (centres undefined) [glyceryltrioleate] | 24.2 |
| CC(C)CCCC(C)C1CCC2C3CCC4CC(O)CCC4(C)C3CCC12C (centres undefined) [Cholestanol] | 11.3 |
| NC(CF)(C(=O)O)C(O)CCc1ccccc1 (centres undefined) [T-LCA] | 2 |
| CCCCC/C=C\C/C=C\CCCCCCCC(=O)O [linoleic acid] | 8.9 |
| CCCCCCCCC=CCCCCCCCC(=O)OCC(COP(=O)(O)OCC(O)CO)OC(=O)CCCCCCCC=CCCCCCCCC (centres undefined) [1,2dioleoyl_GLP_Na] | 15.7 |
| CC(C)CCCC(C)C1CCC2C3CC4OC45CC(O)CCC5(C)C3CCC12C (centres undefined) [Chol_Epoxide] | 12.8 |
| NC(COP(=O)(O)O)C(=O)O (centres undefined) [PS] | 14.9 |
| CC1CCC2(CO)CCC3(C)C(=CCC4C5(C)CCC(O)C(C)(C)C5CCC43C)C2C1C (centres undefined) [uvaol] | 7.6 |
| CCCCCCCCC=CCCCCCCCC(=O)OC(CC(=O)[O-])C[N+](C)(C)C (centres undefined) [Oleoyl-CAR] | 5.8 |
| CCCCCC=CCC=CCCCCCCCC(=O)OCC(COC(=O)CCCCCCCC=CCC=CCCCCC)OC(=O)CCCCCCCC=CCC=CCCCCC (centres undefined) [Glyceryltrilinoleate] | 23.6 |
| CCCCCCCCC=CCCCCCCCC(=O)OCC(COP(=O)(O)OCCN)OC(=O)CCCCCCCC=CCCCCCCCC (centres undefined) [1,2dioleoyl_PE] | 17.4 |
| CCCCCCCCCCCCCCCC(=O)O [palmitic_acid] | 9.9 |
| CC(C)CCCC(C)C1CCC2C3CC=C4CC(O)CCC4(C)C3CCC12C (centres undefined) [CHOLESTEROL] | 15.3 |
| CC(CCC(=O)NCC(=O)O)C1CCC2C3CCC4CC(O)CCC4(C)C3CCC12C (centres undefined) [G-LCA] | 2.9 |
| CC(C)=CCCC(C)C1CCC2C3CC=C4CC(O)CCC4(C)C3CCC12C (centres undefined) [desmosterol] | 13.8 |

| SMILES | LC retention time [min] |
| --- | --- |
| CC(C)C(C)C=CC(C)C1CCC2C3CC=C4CC(O)CCC4(C)C3CCC12C (centres undefined) [brassicasterol] | 15.1 |
| CCCCCCC=CCCCCCCCC(=O)O [palmitoleic_acid] | 8.4 |
| CCC(CCC(C)C1CCC2C3CC=C4CC(OC5OC(CO)C(O)C(O)C5O)CCC4(C)C3CCC12C)C(C)C (centres undefined) [betaSitosterolglucoside] | 12.6 |
| CCC(C=CC(C)C1CCC2C3CC=C4CC(O)CCC4(C)C3CCC12C)C(C)C (centres undefined) [stigmasterol] | 16 |
| CC(C)=CCCC(C)C1CCC2(C)C3=C(CCC12C)C1(C)CCC(O)C(C)(C)C1CC3 (centres undefined) [lanosterol] | 15 |
| CCCCCCCCCCCCCCCCCC(=O)OCC(COC(=O)CCCCCCCCCCCCCCCCC)OC(=O)CCCCCCCCCCCCCCCCC [glyceryltristearate] | 24.9 |
| CCCCCCCCCCCCCCCC(=O)OCC(O)COP(=O)([O-])OCC[N+](C)(C)C (centres undefined) [1-palmitoyl-sn-glycero-3PC] | 5.9 |
| C=C(C)C1CCC2(C)CCC3(C)C(CCC4C5(C)CCC(O)C(C)(C)C5CCC43C)C12 (centres undefined) [lupeol] | 15.2 |
| CCCCCCC=CCCCCCCCC(=O)OCC(O)CO (racemic) [1monopalmitoleoyl-rac-GL] | 7 |
| CCCCCCCCCCCCCCCCCCCCCC(=O)O [BehenicAcid] | 15.8 |
| CCCCCCCCC=CCCCCCCCCCCCC(=O)O [erucic acid] | 14 |
| CCCCCCCCCCCCCCCC(=O)OCC(COC(=O)CCCCCCCCCCCCCCC)OC(=O)CCCCCCCCCCCCCCC [glyceryltripalmitate] | 24.2 |
| CCCCCCCCC=CCCCCCCCC(=O)OCC(COP(=O)([O-])OCC[N+](C)(C)C)OC(=O)CCCCCCCC=CCCCCCCCC (centres undefined) [1,2dioleoyl_PC] | 17 |
| CC(CCC(=O)O)C1CCC2C3CCC4CC(O)CCC4(C)C3CC(O)C12C (centres undefined) [DCA] | 3.5 |
| CCCCCCCCCCCCCC=CC(O)C(N)CO [D-sphingosine] | 4.3 |
| CCCCCCCCC=CCCCCCCCC(=O)OCC(O)CO (stereo not drawn) [1oleoyl_rac_GL] | 8.8 |
| CC(=O)C1CCC2C3CCC4=CC(=O)CCC4(C)C3CCC12C (centres undefined) [Progesterone] | 2.7 |
| CCCCCCC=CCCCCCCCCCC(=O)O [cis-vaccenic_acid] | 10.3 |
| CC(CCC(=O)O)C1CCC2C3CC(O)C4CC(O)CCC4(C)C3CCC12C (centres undefined) [HDCA] | 2.1 |
